This is an account of results in patent publication US12162819B2, “Ionizable lipid compounds” (Beijing Jitai Pharmaceutical Technology Co., Ltd., priority 2022, dated 2024).

Molecules are shown by their SMILES.

Series [1] is described as follows: Particle size and PDI of lipid nanoparticles by dynamic light scattering. The format is physicochemical. The following applies: lipid nanoparticle with the cationic lipid, cholesterol, DSPC, DMG-PEG2000 (50/38.5/10/1.5 mol%), luciferase mRNA, N/P 6. On the procedure:
(§1) Lipid nanoparticles were prepared by (1) dissolving and mixing ionizable lipid compounds, cholesterol, phospholipids and polyethylene glycolated lipids in ethanol at (molar percentages) 50%, 38.5%, 10% and 1.5%, respectively; (2) dissolving the mRNA active ingredient in 25 mM sodium acetate solution (pH=4.5); (3) using an automated high-throughput microfluidic system to mix the organic phase containing the lipid mixture and the aqueous phase containing the mRNA component in the flow ratio range of 1:1 to 1:4 at a mixing speed of 10 mL/min to 18 mL/min; (4) the prepared lipid nanoparticles (N/P ratio of 6) were diluted with phosphate buffer solution and the nanoparticle solutions were ultrafiltered to the original preparation volume using ultrafiltration tubes (purchased from Millipore) with a cut-off molecular weight of 30 kDa; and (5) the obtained nanoparticles were filtered through a sterile 0.2 μm filter membrane and then stored in a sealed glass vial at low temperature.
(§2) The particle size and particle size dispersity index (PDI) of the prepared lipid nanoparticles were measured using a Zetasizer Pro (purchased from Malvern Instruments Ltd) and a DynaPro NanoStar (purchased from Wyatt) dynamic light scattering instrument. The degree of RNA encapsulation by lipid nanoparticles was characterized by the Encapsulation Efficiency %, which reflects the degree of binding of lipid nanoparticles to RNA fragments. This parameter was measured by the method of Quant-It™ RiboGreen RNA Assay (purchased from Invitrogen). Lipid nanoparticle samples were diluted in TE buffer (10 mM Tris-HCl, 1 mM EDTA, pH=7.5). A portion of the sample solution was removed, to which 0.5% Triton (Triton X-100) was added, and then allowed to stand at 37° C. for 30 minutes. Immediately after the addition of RIBOGREEN® reaction solution, the fluorescence values were read on a Varioskan LUX multifunctional microplate reader (purchased from Thermofisher) at 485 nm for absorption and 528 nm for emission to give the encapsulation efficiency values.

Series [2] can be described thus: Encapsulation efficiency of lipid nanoparticles, Quant-It RiboGreen RNA Assay. The format is physicochemical. To be noted: lipid nanoparticle with the cationic lipid, luciferase mRNA. As for the experimental part:
as §1, §2

The subject of another series is C57BL/6 mice. Put plainly: In vivo bioluminescence assay of lipid nanoparticles encapsulated with luciferase mRNA in mice. The following applies: C57BL/6 mice, intravenous, single dose 0.5 mg/kg luciferase mRNA in LNP, 6 h after administration, group mean. As for the experimental part:
as §1
The delivery effect and safety of nanoparticles encapsulated with luciferase mRNA (Trilink, L-7202) in mice were evaluated. The test mice were SPF-grade C57BL/6 mice, female, 6-8 weeks old, weighing 18-22 g, and were purchased from SPF (Beijing) Biotechnology Co., Ltd. All animals were acclimatized for more than 7 days prior to the experiment, and had free access to food and water during the experiment. The conditions include alternating light and dark for 12/12 h, the indoor temperature of 20-26° C. and the humidity of 40-70%. The mice were randomly grouped. The lipid nanoparticles encapsulated with luciferase mRNA prepared above were injected into mice by intravenous administration at a single dose of 0.5 mg/kg mRNA, and the mice were subjected to in vivo bioluminescence assay using a Small Animal In Vivo Imaging System (IVIS LUMINA III, purchased from PerkinElmer) at 6 h after administration. The assay was performed as follows: D-luciferin solution was prepared in saline at a concentration of 15 mg/mL, and each mouse was given the substrate by intraperitoneal injection. At ten minutes after administration of the substrate, the mice were anesthetized in an anesthesia chamber with isoflurane at a concentration of 2.5%. The anesthetized mice were placed in IVIS for fluorescence imaging, and data acquisition and analysis were performed on the concentrated distribution area of fluorescence.
The in vivo delivery efficiency of lipid nanoparticle carriers was expressed as the mean values of fluorescence intensity and total photon count in different animals within the same subject group, as shown in Table 5. Higher values of fluorescence intensity and total photon count indicate higher in vivo delivery efficiency of this mRNA fragment by lipid nanoparticles. The lipid nanoparticles containing the cationic lipids of the present disclosure have good in vivo delivery efficiency.

Take `CCCCCCCCCCNC(=O)C(C)(C)CCCCCC(CCCCCC(C)(C)C(=O)NCCCCCCCCCC)OC(=O)CN(C)C` [Compound 13]: in series [1], the “Particle size (nm)” value is 157.10 nm and the “Particle size dispersity (PDI)” value is 0.08. Also, in series [2], the “Encapsulation efficiency (%)” value was determined as 56.65%. Besides, the “Total photon count in vivo at 6 hours after administration (Total Flux)” value (shortened to “Total photon count in vivo at 6 hours”) in the series on C57BL/6 mice amounted to 1.08E+06.
As to `CCCCCCCCCCNC(=O)C(C)(C)CCCCCC(CCCCCC(C)(C)C(=O)NCCCCCCCCCC)OC(=O)CCCN(C)C` [Compound 14], in series [1], the “Particle size (nm)” value is 306.07 nm and the “Particle size dispersity (PDI)” value amounted to 0.08. For the same compound, the “Encapsulation efficiency (%)” value in series [2] is 45.66%. In addition, the “Total photon count in vivo at 6 hours” value with C57BL/6 mice was determined as 6.34E+07.
Consider `CCCCCCCCN(CCCCCCCC)CCOC(=O)C(C)(C)CCCCCC(CCCCCC(C)(C)C(=O)OCCN(CCCCCCCC)CCCCCCCC)OC(=O)CCN(C)C` [Compound 15], for which, in series [1], the “Particle size (nm)” value amounted to 91.68 nm and the “Particle size dispersity (PDI)” value amounted to 0.06. The “Encapsulation efficiency (%)” value in series [2] is given as 84.78%. In addition, the “Total photon count in vivo at 6 hours” value in the series with C57BL/6 mice amounted to 4.89E+08.
On the same counts, the results for `CCCCCCCCC(CCCCCC)OC(=O)C(C)(C)CCCCCC(CCCCCC(C)(C)C(=O)OC(CCCCCC)CCCCCCCC)OC(=O)CCN(C)C` (stereo not shown) [Compound 16] are 55.39 nm, 0.05, 96.52% and 3.97E+07.
As for `CCCCCCCCCCSC(=O)C(C)(C)CCCCCC(CCCCCC(C)(C)C(=O)SCCCCCCCCCC)OC(=O)C1CCN(C)CC1` [Compound 104], in series [1], the “Particle size (nm)” value came to 71.14 nm and the “Particle size dispersity (PDI)” value is listed as 0.06. Also, the “Encapsulation efficiency (%)” value in series [2] stood at 85.54%.
Turning to `CCCCCCCCCCSC(=O)C(C)(C)CCCCCC(CCCCCC(C)(C)C(=O)SCCCCCCCCCC)OC(=O)C1CCN(C(C)C)CC1` [Compound 105], in series [1], the “Particle size (nm)” value was found to be 78.80 nm and the “Particle size dispersity (PDI)” value is 0.05. Besides, the “Encapsulation efficiency (%)” value in series [2] is 94.67%.
The corresponding values for `CCCCCCCCCSC(=O)C(C)(C)CCCCCC(CCCCCC(C)(C)C(=O)SCCCCCCCCC)OC(=O)C1CCN(C)CC1` [Compound 106] are 83.09 nm, 0.05 and 85.65%.
The corresponding values for `CCCCCCCCCSC(=O)C(C)(C)CCCCCC(CCCCCC(C)(C)C(=O)SCCCCCCCCC)OC(=O)C1CCN(C(C)C)CC1` [Compound 107] are 99.54 nm, 0.05 and 83.74%.
The corresponding values for `CCCCCCCCCSC(=O)C(C)(C)CCCCCC(CCCCCC(C)(C)C(=O)SCCCCCCCCC)OC(=O)CC1CCN(C)CC1` [Compound 108] are 121.41 nm, 0.05 and 92.63%.
For `CCCCCCCCCSC(=O)C(C)(C)CCCCCC(CCCCCC(C)(C)C(=O)SCCCCCCCCC)OC(=O)CC1CCN(CC)CC1` [Compound 109], in series [1], the “Particle size (nm)” value stood at 101.04 nm and the “Particle size dispersity (PDI)” value worked out at 0.06. In series [2], the “Encapsulation efficiency (%)” value stood at 87.11%.
On to `CCCCCCCCCOC(=O)C(C)(C)CCCCCC(CCCCCC(C)(C)C(=O)OCC(CCCCC)CCCCCCC)OC(=O)CC1CCN(C)CC1` (stereo not shown) [Compound 111], for which, in series [1], the “Particle size (nm)” value was 141.30 nm and the “Particle size dispersity (PDI)” value is 0.06. For the same compound, in series [2], the “Encapsulation efficiency (%)” value is recorded as 95.12%.
Take `CCCCCCCCCSC(=O)C(C)(C)CCCCCC(CCCCCC(C)(C)C(=O)OCC(CCCCC)CCCCCCC)OC(=O)CC1CCN(C)CC1` (stereo not shown) [Compound 112]: in series [1], the “Particle size (nm)” value is recorded as 121.05 nm and the “Particle size dispersity (PDI)” value is reported as 0.08. For the same compound, the “Encapsulation efficiency (%)” value in series [2] is 94.41%.
Take `CCCCCCCC#CCOC(=O)C(C)(C)CCCCCC(CCCCCC(C)(C)C(=O)OCCCC(CCCCC)CCCCC)OC(=O)CCCN(C)C` (stereo not shown) [Compound 115]: in series [1], the “Particle size (nm)” value is listed as 77.12 nm and the “Particle size dispersity (PDI)” value stood at 0.04. Also, the “Encapsulation efficiency (%)” value in series [2] is 91.76%.
Regarding `CCCCCCCC#CCOC(=O)C(C)(C)CCCCCC(CCCCCC(C)(C)C(=O)OCC(CCCCC)CCCCCCC)OC(=O)CCCN(C)C` (stereo not shown) [Compound 116], in series [1], the “Particle size (nm)” value was 88.62 nm and the “Particle size dispersity (PDI)” value worked out at 0.05. In addition, the “Encapsulation efficiency (%)” value in series [2] is on record as 89.36%.
In the case of `CCCCC(CC#CCOC(=O)C(C)(C)CCCCCC(CCCCCC(C)(C)C(=O)OCC#CCC(CCCC)CCCC)OC(=O)CCCN(C)C)CCCC` [Compound 117], in series [1], the “Particle size (nm)” value came to 127.31 nm and the “Particle size dispersity (PDI)” value was 0.06. Further, the “Encapsulation efficiency (%)” value in series [2] came out at 95.29%.
In the case of `CCCCCCCCCOC(=O)C(C)(C)CCCCCC(CCCCCC(C)(C)C(=O)OCC#CC(CCCCCC)CCCCCC)OC(=O)CCCN(C)C` (stereo not shown) [Compound 118], in series [1], the “Particle size (nm)” value came to 88.33 nm and the “Particle size dispersity (PDI)” value stood at 0.07. Also, the “Encapsulation efficiency (%)” value in series [2] amounted to 93.87%.
Consider `CCCCCCCCCOC(=O)C(C)(C)CCCCC(CCCCC(C)(C)C(=O)OCC(CCCCC)CCCCCCC)OC(=O)CCCN(C)C` (stereo not shown) [Compound 122], for which, in series [1], the “Particle size (nm)” value was found to be 96.72 nm and the “Particle size dispersity (PDI)” value worked out at 0.07. Moreover, in series [2], the “Encapsulation efficiency (%)” value is on record as 91.76%.
As to `CCCCCCCCCCOC(=O)C(C)(C)CCCCC(CCCCC(C)(C)C(=O)OCC(CCCCC)CCCCCCC)OC(=O)CCCN(C)C` (stereo not shown) [Compound 123], in series [1], the “Particle size (nm)” value was determined as 84.98 nm and the “Particle size dispersity (PDI)” value amounted to 0.05. The “Encapsulation efficiency (%)” value in series [2] was 92.27%.
`CCCCCCCCCOC(=O)C(C)(C)CCCCCCC(CCCCCCC(C)(C)C(=O)OCC(CCCCC)CCCCCCC)OC(=O)CCCN(C)C` (stereo not shown) [Compound 125]: in series [1], the “Particle size (nm)” value was determined as 95.69 nm and the “Particle size dispersity (PDI)” value worked out at 0.07. Moreover, the “Encapsulation efficiency (%)” value in series [2] is on record as 89.45%.
As for `CCCCCCCCCOC(=O)C(C)(C)CCCCCCC(CCCCCCC(C)(C)C(=O)OCC(CCCCC)CCCCCCC)OC(=O)CCCCN(C)C` (stereo not shown) [Compound 126], in series [1], the “Particle size (nm)” value turned out to be 133.76 nm and the “Particle size dispersity (PDI)” value was found to be 0.06. Moreover, in series [2], the “Encapsulation efficiency (%)” value was 94.35%.
On to `CCCCCCC(CCCCCC)CCOC(=O)CCC(C)(C)CCCC(CCCC(C)(C)CCC(=O)OCCC(CCCCCC)CCCCCC)OC(=O)CCCN(C)C` [Compound 128], for which, in series [1], the “Particle size (nm)” value was determined as 83.10 nm and the “Particle size dispersity (PDI)” value is listed as 0.05. Also, the “Encapsulation efficiency (%)” value in series [2] came to 79.88%.
The corresponding values for `CCCCCCCC(CCCCCCC)COC(=O)CCC(C)(C)CCCC(CCCC(C)(C)CCC(=O)OCC(CCCCCCC)CCCCCCC)OC(=O)CCCN(C)C` [Compound 129] are 112.08 nm, 0.06 and 57.87%.
The corresponding values for `CCCCCCCCCOC(=O)CCCCCCC(CCCCCCC(=O)OCCCCCCCCC)OC(=O)CCCN(C)C` [Compound D1, reference compound] are 131.2 nm, 0.18 and 97.08%.
Turning to `CCCCCCCCCOC(=O)CCCCCCC(CCCCCCC(=O)OCC(CCCCC)CCCCCCC)OC(=O)CCCN(C)C` (stereo not shown) [Compound D2, reference compound], in series [1], the “Particle size (nm)” value stood at 245.33 nm and the “Particle size dispersity (PDI)” value is 0.20. In addition, in series [2], the “Encapsulation efficiency (%)” value is on record as 79.63%.
